In test [1] the target is NAD-dependent protein deacylase sirtuin-5, mitochondrial (Homo sapiens, UniProt Q9NXA8). Nature of the test: sirtuin-5 deacylation blockers, concentration series – biochemical, fluorescence imaging, cherry-pick, set 5, dose response (AID 720591).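 Further: desuccinylation of succinyl peptide AMC substrate read as fluorescence after trypsin release; potency of inhibitors that lower fluorescence and may act on trypsin instead.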
A short description of test [2]: toxicity toward HepG2 liver cells – cell-based, plate reader, cherry-pick, antagonist series, cytotoxicity control, dose response (AID 743416). The class given is functional.
The nature of test [3]: blockers of HIV-1 ZM109 envelope-driven cell-cell fusion – HeLa effector, CEM target cells, luciferase, cherry-pick, dose response (AID 652058).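 Further: luciferase signal from HIV-1 Env mediated cell-cell fusion of effector and target cells.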 The test is classed as functional, cell-based.
The nature of test [4]: HIV-1 AD8 envelope cell-cell fusion blockers – cherry-pick, dose response (AID 652062).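 Further: luciferase signal from cell-cell fusion driven by HIV-1 clade B AD8 Env; potency is for inhibitors of fusion seen as a drop in luminescence.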 The test is classed as functional, cell-based.
A short description of test [5]: viability loss in CEM21 cells – cell-based, CellTiter-Glo luminescence, cherry-picked, cytotoxicity control for viral fusion inhibitor project, dose response (AID 652042).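 Further: potency for signal decrease meaning cytotoxicity.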 The test is classed as functional. (In general: In ATP-based viability assays light output follows the ATP content of the culture.)
Test [6] in a line: blockers of bursicon-stimulated LGR2 cAMP reporter – cell-based, HEK293, CRE-luciferase reporter, cherry pick, set 2, dose response (AID 743343).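 Further: transfected cells were stimulated with diluted bursicon conditioned medium after compound addition.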 The test is classed as functional. (In general: Reporter assays use an easily measured gene product as a stand-in for the process of interest.)
The nature of test [7]: viability loss in HEK293 cells – cell-based, plate reader, cherry-picked samples, cytotoxicity control, dose response (AID 743446). The test is classed as functional.
A short description of test [8]: A549 cell cytotoxicity, dose response, cytotoxicity control, plate reader, cherry-pick, antagonist series (AID 743412). The class given is functional, cell-based.
Test [9] can be described thus: blockade of melanocortin 4 receptor signaling – cell-based, plate reader, cherry pick, counter-screen for LGR2 antagonist project, dose response (AID 743444).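 Further: transfected HEK 293 cells stimulated with alpha-MSH peptide; potency of inhibitors of the alpha-MSH evoked signal.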 The test is classed as functional.
The nature of test [10]: off-target signal loss in HeLa-CEM21 co-culture – HeLa F-luc CTL cells, cherry-picked, counter-screen for HIV-1 Env fusion inhibitor project, dose response (AID 652040).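 Further: potency for signal decrease marking cytotoxic or nonspecific inhibition.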 The test is classed as functional, cell-based. (In general: A counterscreen serves to expose hits that act by an unwanted route or on another target.)
A short description of test [11]: blockers of HIV-1 envelope-mediated cell-cell fusion – cherry-pick, dose response (AID 652057). The test is classed as functional, cell-based.
Test [12] is described as follows: Trypanosoma cruzi growth suppression in host cells – NIH3T3 host cells, beta-gal luminescence, confirmation (AID 2044).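 Further: intracellular parasites grown in NIH/3T3 mouse fibroblasts as host cells; luminescent beta-galactosidase reporter signal from transgenic T. cruzi replicating inside host cells; inhibitors lower the luminescence signal.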 The class given is functional, cell-based.
The nature of test [13]: NIH3T3 cell viability loss – ATP luminescence, mouse fibroblasts, counter-screen, dose response (AID 2010).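 Further: cells exposed to compound for about 90 hours before reading.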 The test is classed as functional, cell-based.
For a further test, the target named is Procathepsin L (Homo sapiens, UniProt P07711). The test is described as follows: CTSL1 protease inhibition – biochemical, QFRET, 1536-well, counter-screen for M1/M17 aminopeptidase inhibitor project, dose response (AID 2214).
Chain of Procathepsin L (P07711 whole entry): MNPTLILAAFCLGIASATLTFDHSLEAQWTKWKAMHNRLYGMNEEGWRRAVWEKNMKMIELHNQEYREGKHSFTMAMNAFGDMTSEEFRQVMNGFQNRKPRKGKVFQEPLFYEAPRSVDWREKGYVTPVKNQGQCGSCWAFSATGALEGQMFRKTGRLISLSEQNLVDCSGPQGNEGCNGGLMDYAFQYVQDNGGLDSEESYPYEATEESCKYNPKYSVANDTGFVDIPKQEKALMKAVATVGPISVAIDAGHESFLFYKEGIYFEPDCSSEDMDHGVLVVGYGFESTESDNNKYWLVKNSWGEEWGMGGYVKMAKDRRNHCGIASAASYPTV
In a further test the target is T1, Leucine aminopeptidase (Plasmodium falciparum 3D7, UniProt Q8IL11).
T1 sequence (Q8IL11 whole entry): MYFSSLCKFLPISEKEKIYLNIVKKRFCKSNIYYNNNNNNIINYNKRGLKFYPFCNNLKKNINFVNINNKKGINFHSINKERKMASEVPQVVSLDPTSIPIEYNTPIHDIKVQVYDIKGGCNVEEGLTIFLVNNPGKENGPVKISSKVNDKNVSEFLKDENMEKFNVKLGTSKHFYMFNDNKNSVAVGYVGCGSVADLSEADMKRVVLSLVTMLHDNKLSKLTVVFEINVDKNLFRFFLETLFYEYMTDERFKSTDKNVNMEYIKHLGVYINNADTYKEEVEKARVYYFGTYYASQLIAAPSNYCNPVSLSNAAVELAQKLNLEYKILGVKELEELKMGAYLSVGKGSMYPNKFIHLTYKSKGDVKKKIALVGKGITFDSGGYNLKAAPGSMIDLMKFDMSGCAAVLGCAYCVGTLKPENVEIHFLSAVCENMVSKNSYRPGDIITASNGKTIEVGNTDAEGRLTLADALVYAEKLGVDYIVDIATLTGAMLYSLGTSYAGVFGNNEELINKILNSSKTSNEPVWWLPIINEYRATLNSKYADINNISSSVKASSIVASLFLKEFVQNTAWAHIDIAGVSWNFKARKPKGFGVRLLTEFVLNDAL
The test is described as follows: P. falciparum M17LAP inhibitors, primary screen, biochemical, fluorogenic H-Leu-NHMec substrate, 1536-well (AID 1619). The class given is functional.

For the next test, the target named is T2, Aspartyl aminopeptidase (Plasmodium falciparum 3D7, UniProt Q8I2J3).
T2 sequence (Q8I2J3 whole entry): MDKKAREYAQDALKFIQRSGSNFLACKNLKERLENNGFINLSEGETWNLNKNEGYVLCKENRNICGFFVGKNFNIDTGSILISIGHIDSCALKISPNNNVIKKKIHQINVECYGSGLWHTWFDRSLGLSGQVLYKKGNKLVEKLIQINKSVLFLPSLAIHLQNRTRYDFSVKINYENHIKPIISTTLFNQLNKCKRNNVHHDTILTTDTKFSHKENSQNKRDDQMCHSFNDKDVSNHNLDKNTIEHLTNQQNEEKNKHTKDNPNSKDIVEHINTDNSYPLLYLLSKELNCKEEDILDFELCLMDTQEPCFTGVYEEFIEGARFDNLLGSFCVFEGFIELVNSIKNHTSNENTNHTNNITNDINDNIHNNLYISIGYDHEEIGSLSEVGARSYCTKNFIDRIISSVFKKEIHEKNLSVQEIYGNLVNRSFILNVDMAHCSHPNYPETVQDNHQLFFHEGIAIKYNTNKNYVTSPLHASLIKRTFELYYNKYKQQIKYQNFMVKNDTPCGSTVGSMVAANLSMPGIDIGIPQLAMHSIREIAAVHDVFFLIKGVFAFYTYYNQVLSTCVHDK
The test is described as follows: Counterscreen for inhibitors of M1 and M17 aminopeptidases: QFRET-based biochemical high throughput dose response assay for inhibitors of the Plasmodium falciparum M18 Aspartyl Aminopeptidase (PFM18AAP). [Related PubChem assays: 1619 (Screening assay (M17LAP inhibitors).), 1445 (Screening assay (M1AAP inhibitors).)].

For test [14], the target named is Disintegrin and metalloproteinase domain-containing protein 17 (Homo sapiens, UniProt P78536). The test is described as follows: exosite inhibitors of ADAM17, dose response, biochemical (AID 743260).
Chain of Disintegrin and metalloproteinase domain-containing protein 17 (P78536 whole entry, the tested form may be a part): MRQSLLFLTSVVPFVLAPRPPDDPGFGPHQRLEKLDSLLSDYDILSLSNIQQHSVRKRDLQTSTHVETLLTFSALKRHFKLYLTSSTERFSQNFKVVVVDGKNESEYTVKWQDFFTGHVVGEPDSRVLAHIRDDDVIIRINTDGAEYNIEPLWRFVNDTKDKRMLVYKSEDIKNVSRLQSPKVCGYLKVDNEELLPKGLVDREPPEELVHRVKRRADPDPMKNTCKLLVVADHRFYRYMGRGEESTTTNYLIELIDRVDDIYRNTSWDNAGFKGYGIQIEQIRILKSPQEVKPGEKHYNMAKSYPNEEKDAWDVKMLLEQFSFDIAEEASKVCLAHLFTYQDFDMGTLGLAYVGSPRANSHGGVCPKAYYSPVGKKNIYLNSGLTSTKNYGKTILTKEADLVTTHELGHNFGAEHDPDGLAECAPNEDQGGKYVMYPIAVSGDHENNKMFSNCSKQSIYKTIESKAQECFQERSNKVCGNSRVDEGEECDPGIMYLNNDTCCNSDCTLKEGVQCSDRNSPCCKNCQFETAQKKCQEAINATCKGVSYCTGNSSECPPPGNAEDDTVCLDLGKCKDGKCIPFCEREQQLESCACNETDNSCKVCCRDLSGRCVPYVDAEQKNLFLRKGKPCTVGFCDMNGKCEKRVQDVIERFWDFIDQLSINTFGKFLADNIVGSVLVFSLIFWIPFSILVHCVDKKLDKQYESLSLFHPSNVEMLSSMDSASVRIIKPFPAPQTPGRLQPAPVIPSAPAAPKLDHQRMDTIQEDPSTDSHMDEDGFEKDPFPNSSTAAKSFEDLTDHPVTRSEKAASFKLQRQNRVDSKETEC
Test [15] can be described thus: inhibition of ADAM10 peptide cleavage – biochemical, FRET peptide substrate, recombinant human ADAM10, selectivity assay for ADAM17 exosite inhibitor project, dose response (AID 743259).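 Further: ADAM10 enzyme cleaving a FRET peptide substrate.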
The target in another test is T3, Aminopeptidase N (Plasmodium falciparum FcB1/Columbia, UniProt O96935).
T3 sequence (O96935 whole entry): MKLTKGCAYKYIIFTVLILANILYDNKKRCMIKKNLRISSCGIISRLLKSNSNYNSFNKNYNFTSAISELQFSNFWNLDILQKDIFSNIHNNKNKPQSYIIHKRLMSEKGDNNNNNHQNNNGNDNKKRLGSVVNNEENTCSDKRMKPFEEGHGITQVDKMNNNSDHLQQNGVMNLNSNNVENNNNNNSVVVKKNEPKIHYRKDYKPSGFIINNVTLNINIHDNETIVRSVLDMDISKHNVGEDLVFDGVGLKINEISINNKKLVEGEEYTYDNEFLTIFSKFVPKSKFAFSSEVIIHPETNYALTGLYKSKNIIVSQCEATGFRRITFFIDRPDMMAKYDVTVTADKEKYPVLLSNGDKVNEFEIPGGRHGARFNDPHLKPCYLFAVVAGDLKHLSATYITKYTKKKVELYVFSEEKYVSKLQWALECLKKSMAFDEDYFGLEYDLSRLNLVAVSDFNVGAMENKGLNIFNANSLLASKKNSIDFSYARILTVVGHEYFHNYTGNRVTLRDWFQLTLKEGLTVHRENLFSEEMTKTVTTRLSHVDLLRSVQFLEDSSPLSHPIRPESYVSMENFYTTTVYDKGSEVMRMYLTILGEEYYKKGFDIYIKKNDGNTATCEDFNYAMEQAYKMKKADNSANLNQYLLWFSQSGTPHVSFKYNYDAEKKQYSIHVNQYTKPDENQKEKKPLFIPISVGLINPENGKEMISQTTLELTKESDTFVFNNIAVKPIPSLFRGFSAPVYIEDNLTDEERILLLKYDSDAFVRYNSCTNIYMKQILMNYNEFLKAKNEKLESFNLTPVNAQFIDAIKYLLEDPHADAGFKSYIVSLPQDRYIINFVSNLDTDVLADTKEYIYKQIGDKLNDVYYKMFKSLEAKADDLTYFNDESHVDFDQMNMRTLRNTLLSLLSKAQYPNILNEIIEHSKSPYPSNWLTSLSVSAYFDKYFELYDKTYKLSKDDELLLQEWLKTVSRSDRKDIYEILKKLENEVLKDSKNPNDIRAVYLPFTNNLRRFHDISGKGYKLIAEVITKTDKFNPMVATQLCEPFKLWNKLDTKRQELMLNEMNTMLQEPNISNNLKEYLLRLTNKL
Nature of the test: malaria alanyl aminopeptidase activity blockers – biochemical, fluorogenic H-Leu-NHMec substrate, 1536-well (AID 1445). Further details: species or system Plasmodium falciparum 3D7, 3D7.

Active and inactive are the calls of the source. Some results are limits rather than exact numbers.

Chain of NAD-dependent protein deacylase sirtuin-5, mitochondrial (Q9NXA8 whole entry): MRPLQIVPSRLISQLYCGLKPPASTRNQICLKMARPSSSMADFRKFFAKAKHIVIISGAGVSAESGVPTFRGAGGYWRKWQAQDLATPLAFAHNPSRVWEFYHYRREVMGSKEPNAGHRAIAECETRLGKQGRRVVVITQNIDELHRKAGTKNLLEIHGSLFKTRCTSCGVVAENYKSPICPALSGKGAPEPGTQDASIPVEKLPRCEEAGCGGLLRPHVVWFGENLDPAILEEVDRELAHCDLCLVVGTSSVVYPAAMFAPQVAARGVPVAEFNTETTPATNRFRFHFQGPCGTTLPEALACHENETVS

Take `CC(C(=O)NC(N)=O)N1C(=O)NC(c2ccccc2)(c2ccccc2)C1=O` (configuration not stated): the AC50 (usually the concentration at which the activity in the assay is half-maximal) in [1] is > 30 µM (inactive).
In the case of `O=C(NC1CCCCC1)c1[nH]nc2c1CCCCC2`, the AC50 in [2] was > 52 µM (inactive); in test [3] it was 16.3 µM (active); in test [4], 7.38 µM (active); in [5], 29.7 µM (active); in test [6], 3.2 µM (active); in test [7], > 52 µM (inactive). Besides, the AC50 was 37.1 µM (active) in [8], 2.24 µM (active) in [9], 13.8 µM (active) in [10] and 6.09 µM (active) in [11].
Take `Cc1cc(=O)oc2c(C)c(OC(C)C(=O)NCCCN3CCCC3=O)ccc12` (configuration not stated): the AC50 in [1] was > 30 µM (inactive).
On to `CC(C)Oc1ccc(CNCCC2(C(C)C)CCOC(C)(C)C2)cc1` (configuration not stated), for which the concentration for a half-maximal effect (EC50) – broadly, the concentration giving half of the maximal effect – was 0.154 µM (active) in “cells”, < 0.1 µM (active) in [12] and > 60 µM (not active) in test [13].
Turning to `C=CCn1c(SCC(=O)Nc2cccc3ccccc23)nc(=O)c(CC)c1O`, the figures for the 50% inhibitory concentration (IC50) on Procathepsin L, at Leucine aminopeptidase and against Aspartyl aminopeptidase were > 59.6 µM (not active), 4.06 µM (active) and > 73.5 µM (not active), respectively.
With `O=C(O)CCC(=O)c1c[nH]c2ccccc12`, the IC50 – broadly, the concentration that gives 50% inhibition – in [14] is 24.9 µM (inactive); in [15], > 69.5 µM (inactive).
With `O=C(CCCn1cnc([N+](=O)[O-])n1)Nc1ccc(F)c(Cl)c1`, the EC50 in “cells” is 0.098 µM (active); in [12], < 0.1 µM (active); in test [13], > 60 µM (not active).
In the case of `O=C(Nn1c(C2CCC2)nc2ccccc2c1=O)c1cccs1`, the IC50 at Aminopeptidase N was 8.54 µM (active); at Procathepsin L, > 59.6 µM (not active); on Aspartyl aminopeptidase it was > 73.5 µM (not active).
`Cc1ccc(NC(=O)CSc2nc(O)c3c(n2)CCC3)cc1C`: the IC50 was > 59.6 µM (not active) on Procathepsin L, 5.9 µM (active) at Leucine aminopeptidase and > 73.5 µM (not active) against Aspartyl aminopeptidase.
In the case of `Cc1ccc(S(=O)(=O)CC(=O)N(CCCN(C)C)c2nc3ccc(C)cc3s2)cc1`, the EC50 was 0.06 µM (active) in “cells”, < 0.1 µM (active) in test [12] and > 30 µM (not active) in [13].

The record behind these values is ChEMBL document CHEMBL1201862, “PubChem BioAssay data set” (2004).
